Results as given in ChEMBL document CHEMBL1142837, “Synthesis of new carbo- and heterocyclic analogues of 8-HETE and evaluation of their activity towards the PPARs” (Bioorg Med Chem Lett, 2005).
pEC50, pKi: −log10 of the molar value.

How the values were obtained:
[1] = molecular target: T1, Peroxisome proliferator-activated receptor gamma (Homo sapiens, UniProt P37231)
T1 sequence (P37231 whole entry): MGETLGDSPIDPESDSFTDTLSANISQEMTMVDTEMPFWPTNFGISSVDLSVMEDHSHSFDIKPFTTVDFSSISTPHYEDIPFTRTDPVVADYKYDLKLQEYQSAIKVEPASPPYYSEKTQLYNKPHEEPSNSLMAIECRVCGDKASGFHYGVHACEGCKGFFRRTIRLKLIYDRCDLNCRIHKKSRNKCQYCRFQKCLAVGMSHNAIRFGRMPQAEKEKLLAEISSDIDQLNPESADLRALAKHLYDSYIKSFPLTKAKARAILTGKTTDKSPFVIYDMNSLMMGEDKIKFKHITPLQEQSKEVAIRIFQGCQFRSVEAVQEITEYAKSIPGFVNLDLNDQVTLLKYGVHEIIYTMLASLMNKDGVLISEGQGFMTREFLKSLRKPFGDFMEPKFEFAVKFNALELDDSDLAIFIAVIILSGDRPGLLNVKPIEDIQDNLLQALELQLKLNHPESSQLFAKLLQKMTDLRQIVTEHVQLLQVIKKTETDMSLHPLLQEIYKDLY

[2] = molecular target: T2, Peroxisome proliferator-activated receptor alpha (Homo sapiens, UniProt Q07869); assay: In vitro effective concentration against human peroxisome proliferator activated receptor alpha/Gal4 in transactivation assay
T2 sequence (Q07869 whole entry): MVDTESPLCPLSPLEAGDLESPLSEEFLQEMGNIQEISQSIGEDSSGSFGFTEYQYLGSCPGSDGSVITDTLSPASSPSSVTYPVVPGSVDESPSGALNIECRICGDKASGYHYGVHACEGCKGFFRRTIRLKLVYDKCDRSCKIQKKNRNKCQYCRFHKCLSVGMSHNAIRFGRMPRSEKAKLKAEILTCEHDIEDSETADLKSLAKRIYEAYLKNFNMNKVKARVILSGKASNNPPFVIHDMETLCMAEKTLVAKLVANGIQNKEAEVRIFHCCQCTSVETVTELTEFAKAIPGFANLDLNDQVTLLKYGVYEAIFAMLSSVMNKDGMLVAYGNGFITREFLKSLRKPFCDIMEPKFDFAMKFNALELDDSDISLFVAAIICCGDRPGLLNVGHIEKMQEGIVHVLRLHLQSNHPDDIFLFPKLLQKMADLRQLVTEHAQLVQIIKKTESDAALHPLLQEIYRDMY

[3] = molecular target: T1, Peroxisome proliferator-activated receptor gamma; assay: In vitro effective concentration against human peroxisome proliferator activated receptor gamma/Gal4 in cell-based transactivation assay; assay type: functional

In the case of `CCCCCOc1ccccc1C(O)CC#CCCCC(=O)OC` (stereo unspecified), the pKi [1] was 5.98, the pEC50 [2] was 6.76 and the pEC50 [3] was 6.19.
`CCCCCOc1ccccc1C(O)CC=CCCCC(=O)O` (stereo unspecified) was tested, and the pKi [1] was < 5.00, the pEC50 [2] was < 5.00 and the pEC50 [3] was 6.47.
`CCCCCOc1cc2ccccc2cc1C(O)CCCCCCC(=O)O` (stereo unspecified) was tested, and the pKi [1] was 6.01, the pEC50 [2] was 5.83 and the pEC50 [3] was < 5.00.
With `CCCCCOc1ncccc1C(O)CC#CCCCC(=O)OC` (stereo unspecified) the pKi [1] was < 5.00, the pEC50 [2] was 5.79 and the pEC50 [3] was 6.26.
With `CCCCCOc1nc2ccccc2cc1C(O)CC#CCCCC(=O)OC` (stereo unspecified) the pKi [1] was < 5.00, the pEC50 [2] was 6.58 and the pEC50 [3] was 5.85.
`CCCCCOc1cc2ccccc2cc1C(O)CC#CCCCC(=O)O` (stereo unspecified) was tested, and the pKi [1] was 5.36 and the pEC50 [3] was < 5.00.
For `CCCCCOc1ncccc1C(O)C/C=C/CCCC(=O)O` (stereo unspecified), the pKi [1] was < 5.00, the pEC50 [2] was < 5.00 and the pEC50 [3] was < 5.00.
For `CCCCCOc1ccccc1C(O)CCCCCCC(=O)OC` (stereo unspecified), the pKi [1] was 6.29, the pEC50 [2] was < 5.00 and the pEC50 [3] was < 5.00.
`CCCCCOc1ccccc1C(O)CCCCCCC(=O)O` (stereo unspecified) was tested, and the pKi [1] was 5.17, the pEC50 [2] was < 5.00 and the pEC50 [3] was < 5.00.
Work on `CCCCCOc1nc2ccccc2cc1C(O)CC#CCCCC(=O)O` (stereo unspecified) yielded a pKi [1] of 6.02, a pEC50 [2] of 6.94 and a pEC50 [3] of 6.21.
For `CCCCCOc1ccccc1C(O)CC#CCCCC(=O)O` (stereo unspecified), the pKi [1] was < 5.00, the pEC50 [2] was < 5.00 and the pEC50 [3] was < 5.00.
`CCCCCOc1cc2ccccc2cc1C(O)CCCCCCCC(=O)OC` (stereo unspecified) was tested, and the pKi [1] was 6.24, the pEC50 [2] was 5.82 and the pEC50 [3] was 5.87.
With `CCCCCOc1cc2ccccc2cc1C(O)CC#CCCCC(=O)OC` (stereo unspecified) the pKi [1] was 6.16, the pEC50 [2] was 5.94 and the pEC50 [3] was < 5.00.
With `CCCCCOc1ncccc1C(O)CCCCCCC(=O)OC` (stereo unspecified) the pKi [1] was < 5.00, the pEC50 [2] was < 5.00 and the pEC50 [3] was < 5.00.
For `CCCCCOc1nc2ccccc2cc1C(O)CC=CCCCC(=O)O` (stereo unspecified), the pKi [1] was < 5.00, the pEC50 [2] was 5.96 and the pEC50 [3] was 5.92.
For `CCCCCOc1nc2ccccc2cc1C(O)CCCCCCCC(=O)OC` (stereo unspecified), the pKi [1] was < 5.00, the pEC50 [2] was < 5.00 and the pEC50 [3] was < 5.00.
In the case of `CCCCCOc1cc2ccccc2cc1C(O)C/C=C/CCCC(=O)OC` (stereo unspecified), the pKi [1] was 6.14, the pEC50 [2] was 5.84 and the pEC50 [3] was < 5.00.
`CCCCCOc1nc2ccccc2cc1C(O)CC=CCCCC(=O)OC` (stereo unspecified) was tested, and the pKi [1] was 5.88, the pEC50 [2] was 5.89 and the pEC50 [3] was 5.81.
With `CCCCCOc1ncccc1C(O)CC#CCCCC(=O)O` (stereo unspecified) the pKi [1] was < 5.00, the pEC50 [2] was 5.81 and the pEC50 [3] was < 5.00.
With `CCCCCOc1cc2ccccc2cc1C(O)CC=CCCCC(=O)O` (stereo unspecified) the pKi [1] was 5.99, the pEC50 [2] was 5.92 and the pEC50 [3] was 5.82.
`CCCCCOc1ncccc1C(O)C/C=C/CCCC(=O)OC` (stereo unspecified) was tested, and the pKi [1] was < 5.00, the pEC50 [2] was < 5.00 and the pEC50 [3] was < 5.00.
`CCCCCOc1ncccc1C(O)CCCCCCC(=O)O` (stereo unspecified) was tested, and the pKi [1] was < 5.00, the pEC50 [2] was < 5.00 and the pEC50 [3] was < 5.00.
With `CCCCCOc1nc2ccccc2cc1C(O)CCCCCC(=O)O` (stereo unspecified) the pKi [1] was 5.54, the pEC50 [2] was 5.85 and the pEC50 [3] was 5.81.
In the case of `CCCCCOc1ccccc1C(O)CC=CCCCC(=O)OC` (stereo unspecified), the pKi [1] was 5.42, the pEC50 [2] was < 5.00 and the pEC50 [3] was 7.55.
